Test results taken from PubChem BioAssay (NCI).
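Cultured in 96-well plates, cells were exposed to test compound for 48 hours across five concentrations. Here, GI50 denotes the concentration required for 50% inhibition of growth. TGI is the concentration that stops growth completely.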

Key:
Experiment in all cases: inhibition of tumour cell growth, NCI panel, 48 h; in the data active = GI50 below about 0.43 µM; inactive = the rest
UACC-62 melanoma = test system: UACC-62 melanoma
SF-539 CNS = test system: SF-539 CNS
HL-60(TB) leukemia = test system: HL-60(TB) leukemia
SK-MEL-5 melanoma = test system: SK-MEL-5 melanoma
HS 578T breast = test system: HS 578T breast
CAKI-1 renal = test system: CAKI-1 renal
OVCAR-5 ovarian = test system: OVCAR-5 ovarian
UACC-257 melanoma = test system: UACC-257 melanoma
NCI/ADR-RES ovarian = test system: NCI/ADR-RES ovarian
SF-268 CNS = test system: SF-268 CNS
UO-31 renal = test system: UO-31 renal
HCC-2998 colon = test system: HCC-2998 colon
SNB-19 CNS = test system: SNB-19 CNS
SK-MEL-2 melanoma = test system: SK-MEL-2 melanoma
EKVX NSCLC = test system: EKVX NSCLC
A549 NSCLC = test system: A549 NSCLC
NCI-H522 lung = test system: NCI-H522 lung
U251 CNS = test system: U251 CNS
SF-295 CNS = test system: SF-295 CNS
DU-145 prostate = test system: DU-145 prostate
TK-10 renal = test system: TK-10 renal
OVCAR-8 ovarian = test system: OVCAR-8 ovarian
MOLT-4 leukemia = test system: MOLT-4 leukemia
NCI-H460 lung = test system: NCI-H460 lung
NCI-H23 lung = test system: NCI-H23 lung
BT-549 breast = test system: BT-549 breast
OVCAR-3 ovarian = test system: OVCAR-3 ovarian
MDA-MB-435 = test system: MDA-MB-435
SN12C renal = test system: SN12C renal
HCT-15 colon = test system: HCT-15 colon
MCF7 breast = test system: MCF7 breast
HOP-62 NSCLC = test system: HOP-62 NSCLC
SW-620 colon = test system: SW-620 colon
RXF 393 renal = test system: RXF 393 renal
T-47D breast = test system: T-47D breast
HOP-92 NSCLC = test system: HOP-92 NSCLC
KM12 colon = test system: KM12 colon
M14 melanoma = test system: M14 melanoma
COLO 205 colon = test system: COLO 205 colon
SNB-75 CNS = test system: SNB-75 CNS
HT29 colon = test system: HT29 colon
HCT-116 colon = test system: HCT-116 colon
MALME-3M melanoma = test system: MALME-3M melanoma
LOX IMVI melanoma = test system: LOX IMVI melanoma
PC-3 prostate = test system: PC-3 prostate
OVCAR-4 ovarian = test system: OVCAR-4 ovarian
A498 renal = test system: A498 renal
SK-MEL-28 melanoma = test system: SK-MEL-28 melanoma
RPMI-8226 leukemia = test system: RPMI-8226 leukemia
ACHN renal = test system: ACHN renal
NCI-H226 lung = test system: NCI-H226 lung
SR leukemia = test system: SR leukemia
CCRF-CEM leukemia = test system: CCRF-CEM leukemia
K-562 leukemia = test system: K-562 leukemia
MDA-MB-231 breast = test system: MDA-MB-231 breast
786-0 renal = test system: 786-0 renal
SK-OV-3 ovarian = test system: SK-OV-3 ovarian
IGROV1 ovarian = test system: IGROV1 ovarian

Cc1ccc(-c2cc3c(NC(=O)C4CC4)ncnc3o2)cc1
inactive: GI50 (UACC-62 melanoma) > 25 µM | GI50 (SF-539 CNS) > 25 µM | GI50 (HL-60(TB) leukemia) > 25 µM | GI50 (SK-MEL-5 melanoma) > 25 µM | GI50 (HS 578T breast) > 25 µM | GI50 (CAKI-1 renal) > 25 µM | GI50 (OVCAR-5 ovarian) > 25 µM | GI50 (UACC-257 melanoma) > 25 µM | GI50 (NCI/ADR-RES ovarian) > 25 µM | GI50 (SF-268 CNS) > 25 µM | GI50 (UO-31 renal) > 25 µM | GI50 (HCC-2998 colon) > 25 µM | GI50 (SNB-19 CNS) > 25 µM | GI50 (SK-MEL-2 melanoma) > 25 µM | GI50 (EKVX NSCLC) > 21.3 µM | GI50 (A549 NSCLC) > 25 µM | GI50 (NCI-H522 lung) > 25 µM | GI50 (U251 CNS) > 25 µM | GI50 (SF-295 CNS) > 25 µM | GI50 (DU-145 prostate) > 25 µM | GI50 (TK-10 renal) > 25 µM | GI50 (OVCAR-8 ovarian) > 25 µM | GI50 (MOLT-4 leukemia) > 25 µM | GI50 (NCI-H460 lung) > 25 µM | GI50 (NCI-H23 lung) > 25 µM | GI50 (BT-549 breast) > 25 µM | GI50 (OVCAR-3 ovarian) > 25 µM | GI50 (MDA-MB-435) > 25 µM | GI50 (SN12C renal) > 25 µM | GI50 (HCT-15 colon) > 25 µM | GI50 (MCF7 breast) > 25 µM | GI50 (HOP-62 NSCLC) > 25 µM | GI50 (SW-620 colon) > 25 µM | GI50 (RXF 393 renal) > 25 µM | GI50 (T-47D breast) > 25 µM | GI50 (HOP-92 NSCLC) > 25 µM | GI50 (KM12 colon) > 25 µM | GI50 (M14 melanoma) > 25 µM | GI50 (COLO 205 colon) > 25 µM | GI50 (SNB-75 CNS) 24.2 µM | GI50 (HT29 colon) > 25 µM | GI50 (HCT-116 colon) > 25 µM | GI50 (MALME-3M melanoma) > 25 µM | GI50 (LOX IMVI melanoma) > 25 µM | GI50 (PC-3 prostate) > 25 µM | GI50 (OVCAR-4 ovarian) > 25 µM | GI50 (A498 renal) > 25 µM | GI50 (SK-MEL-28 melanoma) > 25 µM | GI50 (RPMI-8226 leukemia) > 25 µM | GI50 (ACHN renal) > 25 µM | GI50 (NCI-H226 lung) > 25 µM | GI50 (SR leukemia) > 25 µM | GI50 (CCRF-CEM leukemia) > 25 µM | GI50 (K-562 leukemia) > 25 µM | GI50 (MDA-MB-231 breast) > 25 µM | GI50 (786-0 renal) > 25 µM | GI50 (SK-OV-3 ovarian) > 25 µM | GI50 (IGROV1 ovarian) > 25 µM
> 25 µM: TGI (UACC-62 melanoma) | TGI (SF-539 CNS) | TGI (HL-60(TB) leukemia) | TGI (SK-MEL-5 melanoma) | TGI (HS 578T breast) | TGI (CAKI-1 renal) | TGI (OVCAR-5 ovarian) | TGI (UACC-257 melanoma) | TGI (NCI/ADR-RES ovarian) | TGI (SF-268 CNS) | TGI (UO-31 renal) | TGI (HCC-2998 colon) | TGI (SNB-19 CNS) | TGI (SK-MEL-2 melanoma) | TGI (EKVX NSCLC) | TGI (A549 NSCLC) | TGI (NCI-H522 lung) | TGI (U251 CNS) | TGI (SF-295 CNS) | TGI (DU-145 prostate) | TGI (TK-10 renal) | TGI (OVCAR-8 ovarian) | TGI (MOLT-4 leukemia) | TGI (NCI-H460 lung) | TGI (NCI-H23 lung) | TGI (BT-549 breast) | TGI (OVCAR-3 ovarian) | TGI (MDA-MB-435) | TGI (SN12C renal) | TGI (HCT-15 colon) | TGI (MCF7 breast) | TGI (HOP-62 NSCLC) | TGI (SW-620 colon) | TGI (RXF 393 renal) | TGI (T-47D breast) | TGI (HOP-92 NSCLC) | TGI (KM12 colon) | TGI (M14 melanoma) | TGI (COLO 205 colon) | TGI (SNB-75 CNS) | TGI (HT29 colon) | TGI (HCT-116 colon) | TGI (MALME-3M melanoma) | TGI (LOX IMVI melanoma) | TGI (PC-3 prostate) | TGI (OVCAR-4 ovarian) | TGI (A498 renal) | TGI (SK-MEL-28 melanoma) | TGI (RPMI-8226 leukemia) | TGI (ACHN renal) | TGI (NCI-H226 lung) | TGI (SR leukemia) | TGI (CCRF-CEM leukemia) | TGI (K-562 leukemia) | TGI (MDA-MB-231 breast) | TGI (786-0 renal) | TGI (SK-OV-3 ovarian) | TGI (IGROV1 ovarian)
